Patent publication US12637415B2, “Lyophilized composition comprising (s)-isopropyl 2-((s)-2-acetamido-3-(1H-indol-3-yl)propanamido)-6-diazo-5-oxohexanoate for intravenous administration and the use thereof” (DRACEN PHARMACEUTICALS, INC., priority 2019, dated 2026)

Tests used:
Type in all cases: physicochemical
[1] = Study Number 1: in-use stability diluted in normal saline in PVC containers (HPLC purity and concentration, 24 hour); conditions: for Time stable at room temperature: 0.012-0.3 mg/mL diluted in normal saline in PVC containers
Protocol: The purity and concentration of Compound 1 as measured by HPLC were determined during a 24 hour test period while the drug product was held in its diluted state in normal saline in a polyvinyl chloride (PVC) clinical containers over a range of concentrations in 500 mL bags. The parameters of the study were: • Compound 1 dose: 6 mg and 150 mg in 500 mL • Concentration range: 0.012-0.3 mg/mL Compound 1 • Container size: 500 mL • Diluent: 0.9% normal saline, USP • Stability time points: 0, 4, 8, 24 hours • Storage condition: room temperature (15-25° C.) • Container composition: polyvinyl chloride • Light conditions: ambient light vs amber IV bag covers to limit UV exposure • Reconstitution: 80% (v/v) ethanol for reconstitution of the lyophilate, followed by dilution into normal saline.

[2] = Study Number 3: in-use stability in polyolefin containers after 50% ethanol reconstitution, 4 hour hold plus 1 hour infusion (HPLC)
Protocol: (§1) The purity and concentration of Compound 1 as measured by HPLC were determined during a 5 hour test period while the drug product was held in a non-DEHP (polyolefin) clinical containers over a range of concentrations in 500 mL containers. Admixed containers were delivered with an […] infusion set by holding the infusion bag with diluted test article for 4 hours prior to a 1 hour infusion to assess in use stability over a total of 5 hours to mimic clinical practice. The parameters of the study were: • Compound 1 dose: 6 mg and 120 mg in 500 mL • Concentration range: 0.012-0.24 mg/mL Compound 1 • Container size: 500 mL • Diluent: 0.9% normal saline, USP • Stability time points: 0 hours, 4 hours (pre-infusion), 5 hours (post-1 hour infusion) • Storage condition: room temperature (15-25° C.) • Container composition: non-DEHP (polyolefin) • Light conditions: amber IV bag covers to limit UV exposure • Reconstitution: 50% (v/v) ethanol for reconstitution of the lyophilate, followed by dilution into normal saline.

[3] = Study Number 2: in-use stability in PVC and polyolefin containers, 4 hour hold plus 1 hour infusion (HPLC)
Protocol: as §1, with “in polyvinyl chloride (PVC) and non-PVC,” for “in a”, “and 150” for “and 120”, “range: 0.012-0.3” for “range: 0.012-0.24”, “composition: polyvinyl chloride and non-PVC,” for “composition:”, “conditions: ambient light vs” for “conditions:”, “Reconstitution: 80%” for “Reconstitution: 50%”

[4] = Holding of compounded sterile filtered pre-lyophilization solutions (precipitation); conditions: for Precipitation in held pre-lyophilization solution: 24 h; for Precipitation post filtration: vials stored at 17° C., 20° C., 22° C., or 25° C. for 24 h
Protocol: Experiments were conducted to study the compounding and holding of pre-lyophilization solutions comprising Compound 1.
Vials of the compounded sterile filtered pre-lyophilization solutions were held at 17° C., 20° C., 22° C., and 25° C.

[5] = Compounding (dissolution) of pre-lyophilization solutions comprising Compound 1
Protocol: Third, Compound 1 was dissolved in the solution at 30° C. After dissolution, the solution was cooled to room temperature (20-22° C.). Experiments were conducted to study the compounding and holding of pre-lyophilization solutions comprising Compound 1.

## CC(=O)N[C@@H](Cc1c[nH]c2ccccc12)C(=O)N[C@@H](CCC(=O)C=[N+]=[N-])C(=O)OC(C)C [Compound 1, (S)-isopropyl 2-((S)-2-acetamido-3-(1H-indol-3-yl)propanamido)-6-diazo-5-oxohexanoate]
[1]; 0.012-0.3 mg/mL in normal saline, PVC, room temperature, through 24 hours
  Appearance of diluted samples: remained clear
[1]; amber covered shroud protected from light
  Time stable at room temperature: up to 24 hours
[1]; ambient light vs amber cover, 0-24 hours, PVC container
  Impurity testing (HPLC): greater impurities under ambient light with an increase in impurities observed over the course of the experiment
[1]; ambient light
  Time stable at room temperature: up to 8 hours
[2]; 0.012-0.24 mg/mL in normal saline, polyolefin, room temperature, through 5 hours, 50% ethanol reconstitution
  Appearance of diluted samples: remained clear
[2]; all time points (0, 4, 5 hours), polyolefin, amber cover
  Impurity testing (HPLC): no impurities at any time point
[2]; followed by a 1 hour infusion, amber shroud, polyolefin containers, PVC or low-sorb tubing, 0.012-0.24 mg/mL in normal saline
  Time stable at room temperature: up to 4 hours
[3]; 0.012-0.3 mg/mL in normal saline, PVC and polyolefin, room temperature, through 5 hours
  Appearance of diluted samples: remained clear
[3]; ambient light vs amber cover, 4 hours and 1 hour post infusion compared to baseline
  Impurity testing (HPLC): greater impurities under ambient light with an increase in impurities observed over the course of the experiment
[3]; followed by a 1 hour infusion, amber shroud, polyolefin containers, low-sorb tubing, 0.012-0.3 mg/mL in normal saline
  Time stable at room temperature: up to 4 hours
[4]; 17° C., 10 mg/mL
  Precipitation in held pre-lyophilization solution: remain free of precipitation
[4]; 17° C., 12.5 mg/mL
  Precipitation in held pre-lyophilization solution: remain free of precipitation
[4]; 17° C., 15 mg/mL
  Time to precipitation of pre-lyophilization solution: occurs within 1 h at 15 mg/mL.
[4]; Exp 4: 15 mg/mL, sterile filtered, vial held at 17° C., at 1 h
  Precipitation post filtration (observed or not): observed in vial held
[4]; Exp 5: 12.5 mg/mL
  Precipitation post filtration: No precipitation
[4]; Exp 6: 10 mg/mL
  Precipitation post filtration: No precipitation
[5]; Exp 2: excipients and Compound 1 15 mg/mL at 25° C., single vessel
  Dissolution time: >6.5 h (estimated at
[5]; Exp 2: excipients and Compound 1 15 mg/mL at 25° C., single vessel, estimated
  Dissolution time (estimated): ~9.5 h
[5]; Exp 3: 15 mg/mL, two vessels (separate aqueous and organic), 25° C. stepped up to 35° C.
  Dissolution of Compound 1 in ethanol and t-butanol (organic dissolution): remains as solid even at
[5]; Exp 3: 15 mg/mL, two vessels, after mixing aqueous and organic portions, held at the temperature of the organic phase
  Dissolution time: 1.25 h
[5]; Exp 4: excipients and Compound 1 15 mg/mL at 30° C., single vessel
  Dissolution time: Dissolution time: 5 h
[5]; Exp 5: excipients and Compound 1 12.5 mg/mL at 30° C., single vessel
  Dissolution time: 3.66 h
[5]; Exp 6: excipients and Compound 1 10 mg/mL at 30° C., single vessel
  Dissolution time: 1.75 h
